From patent US20090156518A1, “STABLE PHARMACEUTICAL COMPOSITION COMPRISING BETA-LACTAM ANTIBIOTIC AND BUFFER” (priority 2006, published 2009)
Marks after values point to notes of the source that are not given here.

Experiment: amounts of β-lactam antibiotic, β-lactamase inhibitor (C18 reverse-phase LC, UV-VIS) and aminoglycoside (HPLC-ELSD) in solution over time
Assay type: physicochemical

amount of component as percentage with respect to the amount at the initial time (Example 8: freeze-dried ceftriaxone sodium, tazobactam sodium, gentamicin sulfate, citrate pH 6.75, 2.5% fructose, 7 days 0° C., in 100 mL water, Time 0 h): 102.2% | amount of component as percentage with respect to the amount at the initial time (Example 8: freeze-dried ceftriaxone sodium, tazobactam sodium, gentamicin sulfate, citrate pH 6.75, 2.5% fructose, 7 days 0° C., in 100 mL water, Time 1 h): 97.53% | amount of component as percentage with respect to the amount at the initial time (Example 8: freeze-dried ceftriaxone sodium, tazobactam sodium, gentamicin sulfate, citrate pH 6.75, 2.5% fructose, 7 days 0° C., in 100 mL water, Time 2 h): 94.16% | amount of component as percentage with respect to the amount at the initial time (Example 8: freeze-dried ceftriaxone sodium, tazobactam sodium, gentamicin sulfate, citrate pH 6.75, 2.5% fructose, 7 days 0° C., in 100 mL water, Time 4 h): 94.58% | amount of component as percentage with respect to the amount at the initial time (Example 8: freeze-dried ceftriaxone sodium, tazobactam sodium, gentamicin sulfate, citrate pH 6.75, 2.5% fructose, 7 days 0° C., in 100 mL water, Time 6 h): 95.45% | amount of component as percentage with respect to the amount at the initial time (Example 8: freeze-dried ceftriaxone sodium, tazobactam sodium, gentamicin sulfate, citrate pH 6.75, 2.5% fructose, 7 days 0° C., in 100 mL water, Time 8 h): 94.44% | amount of component as percentage with respect to the amount at the initial time (Example 16: 10 mL of the final solution (cefoperazone sodium, tazobactam sodium, etimicin sulfate, citrate) + gentamicin sulfate 16 mg, Time 0 h): 93.36% | amount of component as percentage with respect to the amount at the initial time (Example 16: 10 mL of the final solution (cefoperazone sodium, tazobactam sodium, etimicin sulfate, citrate) + gentamicin sulfate 16 mg, Time 1 h): 104.8% | amount of component as percentage with respect to the amount at the initial time (Example 16: 10 mL of the final solution (cefoperazone sodium, tazobactam sodium, etimicin sulfate, citrate) + gentamicin sulfate 16 mg, Time 2 h): 100.0% | amount of component as percentage with respect to the amount at the initial time (Example 16: 10 mL of the final solution (cefoperazone sodium, tazobactam sodium, etimicin sulfate, citrate) + gentamicin sulfate 16 mg, Time 4 h): 96.58* % | amount of component as percentage with respect to the amount at the initial time (Example 16: 10 mL of the final solution (cefoperazone sodium, tazobactam sodium, etimicin sulfate, citrate) + gentamicin sulfate 16 mg, Time 6 h): 106.1* % | amount of component as percentage with respect to the amount at the initial time (Example 16: 10 mL of the final solution (cefoperazone sodium, tazobactam sodium, etimicin sulfate, citrate) + gentamicin sulfate 16 mg, Time 8 h): 107.1* % | amount of component as percentage with respect to the amount at the initial time (Example 16: freeze-dried cefoperazone sodium 4 g, tazobactam sodium 1 g, citrate pH 6.75, 7 days 0° C., in 100 mL water, 10 mL + etimicin sulfate 20 mg, room temperature, Time 0 h): 98.77% | amount of component as percentage with respect to the amount at the initial time (Example 16: freeze-dried cefoperazone sodium 4 g, tazobactam sodium 1 g, citrate pH 6.75, 7 days 0° C., in 100 mL water, 10 mL + etimicin sulfate 20 mg, room temperature, Time 1 h): 108.2% | amount of component as percentage with respect to the amount at the initial time (Example 16: freeze-dried cefoperazone sodium 4 g, tazobactam sodium 1 g, citrate pH 6.75, 7 days 0° C., in 100 mL water, 10 mL + etimicin sulfate 20 mg, room temperature, Time 2 h): 110.8% | amount of component as percentage with respect to the amount at the initial time (Example 16: freeze-dried cefoperazone sodium 4 g, tazobactam sodium 1 g, citrate pH 6.75, 7 days 0° C., in 100 mL water, 10 mL + etimicin sulfate 20 mg, room temperature, Time 4 h): 97.39% | amount of component as percentage with respect to the amount at the initial time (Example 16: freeze-dried cefoperazone sodium 4 g, tazobactam sodium 1 g, citrate pH 6.75, 7 days 0° C., in 100 mL water, 10 mL + etimicin sulfate 20 mg, room temperature, Time 6 h): 106.3% | amount of component as percentage with respect to the amount at the initial time (Example 16: freeze-dried cefoperazone sodium 4 g, tazobactam sodium 1 g, citrate pH 6.75, 7 days 0° C., in 100 mL water, 10 mL + etimicin sulfate 20 mg, room temperature, Time 8 h): 106.3% | amount of component as percentage with respect to the amount at the initial time (Example 20: ceftriaxone sodium 2 g, tazobactam sodium 2 g, gentamicin sulfate 160 mg, citrate pH 6.75, 200 mL water, room temperature, Time 0 h): 102.2% | amount of component as percentage with respect to the amount at the initial time (Example 20: ceftriaxone sodium 2 g, tazobactam sodium 2 g, gentamicin sulfate 160 mg, citrate pH 6.75, 200 mL water, room temperature, Time 1 h): 97.53% | amount of component as percentage with respect to the amount at the initial time (Example 20: ceftriaxone sodium 2 g, tazobactam sodium 2 g, gentamicin sulfate 160 mg, citrate pH 6.75, 200 mL water, room temperature, Time 2 h): 94.16% | amount of component as percentage with respect to the amount at the initial time (Example 20: ceftriaxone sodium 2 g, tazobactam sodium 2 g, gentamicin sulfate 160 mg, citrate pH 6.75, 200 mL water, room temperature, Time 4 h): 94.58% | amount of component as percentage with respect to the amount at the initial time (Example 20: ceftriaxone sodium 2 g, tazobactam sodium 2 g, gentamicin sulfate 160 mg, citrate pH 6.75, 200 mL water, room temperature, Time 6 h): 95.45% | amount of component as percentage with respect to the amount at the initial time (Example 20: ceftriaxone sodium 2 g, tazobactam sodium 2 g, gentamicin sulfate 160 mg, citrate pH 6.75, 200 mL water, room temperature, Time 8 h): 94.44%
SMILES: C[C@]1(Cn2ccnn2)[C@H](C(=O)O)N2C(=O)C[C@H]2S1(=O)=O [Tazobactam sodium]
